The target in data set [1] is Integrin alpha-V/beta-3 (Homo sapiens, UniProt P05106+P06756). The data set is described as follows: Antagonist activity at integrin alphavbeta3 in human A375M cells assessed as inhibition of cell adhesion to fibrinogen in presence of Mg2+. The format is functional, cell-based.
Data set [2] has as its target T1, Integrin alpha-5/beta-1 (Homo sapiens, UniProt P05556+P08648). The data set is described as follows: Antagonist activity at integrin alpha5beta1 in human A375M cells assessed as inhibition of cell adhesion to fibronectin in presence of Mg2+ and MK-0429. The data set is classed as functional, cell-based.
In data set [3] the test system is A375M. The data set is described as follows: Selectivity ratio of IC50 for integrin alphavbeta3alpha5beta1-mediated human A375M cells adhesion to fibronectin in absence of MK-0429 to IC50 for integrin alpha5beta1-mediated human A375M cells adhesion to fibronectin in presence of MK-0429. The data set is classed as cell-based.
Data set [4] can be described thus: Dissociation constant, pKa of the compound. The format is physicochemical.
Data set [5] deals with T1, Integrin alpha-5/beta-1. The data set is described as follows: Binding affinity to integrin alpha5beta1. The data set is classed as protein-complex assay.
For data set [6], the target named is T1, Integrin alpha-5/beta-1. Kind of data set: Antagonist activity at integrin alpha5beta1 in human K562 cells assessed as inhibition of cell adhesion. The data set is classed as functional, cell-based.
Data set [7] deals with Fibronectin receptor (Integrin alpha-5/beta-1 and alpha-V/beta-3) (Homo sapiens, UniProt P05106+P05556+P06756+P08648). The data set is described as follows: Antagonist activity at integrin alphavbeta3alpha5beta1 in human A375M cells assessed as inhibition of cell adhesion to fibronectin in presence of Mg2+. The data set is classed as functional, cell-based.
The target of data set [8] is Integrin alpha-IIb/beta-3 (Homo sapiens, UniProt P05106+P08514). Kind of data set: Inhibition of integrin alpha2b beta3. The format is protein-complex assay.
Integrin alpha-IIb/beta-3, sequence (P05106 27-788 limits assumed): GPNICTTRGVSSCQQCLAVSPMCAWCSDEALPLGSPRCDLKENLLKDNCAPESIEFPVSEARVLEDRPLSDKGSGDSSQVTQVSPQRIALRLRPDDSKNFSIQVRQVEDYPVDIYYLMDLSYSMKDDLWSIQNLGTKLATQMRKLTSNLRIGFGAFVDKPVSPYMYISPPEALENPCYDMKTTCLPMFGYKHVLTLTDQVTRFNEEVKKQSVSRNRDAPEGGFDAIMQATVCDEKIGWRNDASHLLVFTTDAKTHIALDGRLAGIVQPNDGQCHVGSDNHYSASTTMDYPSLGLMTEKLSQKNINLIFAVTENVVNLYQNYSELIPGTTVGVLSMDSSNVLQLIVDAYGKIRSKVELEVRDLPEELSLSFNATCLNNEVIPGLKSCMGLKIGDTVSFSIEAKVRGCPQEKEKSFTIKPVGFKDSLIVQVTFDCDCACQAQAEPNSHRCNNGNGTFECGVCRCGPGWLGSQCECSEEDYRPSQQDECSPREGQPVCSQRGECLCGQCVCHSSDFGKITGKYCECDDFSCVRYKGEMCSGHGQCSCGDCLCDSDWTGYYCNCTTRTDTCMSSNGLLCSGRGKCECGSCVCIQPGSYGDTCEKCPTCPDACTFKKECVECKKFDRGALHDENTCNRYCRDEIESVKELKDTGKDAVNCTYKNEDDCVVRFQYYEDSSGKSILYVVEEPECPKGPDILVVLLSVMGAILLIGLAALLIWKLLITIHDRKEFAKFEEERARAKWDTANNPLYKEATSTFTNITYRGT
Integrin alpha-IIb/beta-3, sequence (P08514 32-887 limits assumed): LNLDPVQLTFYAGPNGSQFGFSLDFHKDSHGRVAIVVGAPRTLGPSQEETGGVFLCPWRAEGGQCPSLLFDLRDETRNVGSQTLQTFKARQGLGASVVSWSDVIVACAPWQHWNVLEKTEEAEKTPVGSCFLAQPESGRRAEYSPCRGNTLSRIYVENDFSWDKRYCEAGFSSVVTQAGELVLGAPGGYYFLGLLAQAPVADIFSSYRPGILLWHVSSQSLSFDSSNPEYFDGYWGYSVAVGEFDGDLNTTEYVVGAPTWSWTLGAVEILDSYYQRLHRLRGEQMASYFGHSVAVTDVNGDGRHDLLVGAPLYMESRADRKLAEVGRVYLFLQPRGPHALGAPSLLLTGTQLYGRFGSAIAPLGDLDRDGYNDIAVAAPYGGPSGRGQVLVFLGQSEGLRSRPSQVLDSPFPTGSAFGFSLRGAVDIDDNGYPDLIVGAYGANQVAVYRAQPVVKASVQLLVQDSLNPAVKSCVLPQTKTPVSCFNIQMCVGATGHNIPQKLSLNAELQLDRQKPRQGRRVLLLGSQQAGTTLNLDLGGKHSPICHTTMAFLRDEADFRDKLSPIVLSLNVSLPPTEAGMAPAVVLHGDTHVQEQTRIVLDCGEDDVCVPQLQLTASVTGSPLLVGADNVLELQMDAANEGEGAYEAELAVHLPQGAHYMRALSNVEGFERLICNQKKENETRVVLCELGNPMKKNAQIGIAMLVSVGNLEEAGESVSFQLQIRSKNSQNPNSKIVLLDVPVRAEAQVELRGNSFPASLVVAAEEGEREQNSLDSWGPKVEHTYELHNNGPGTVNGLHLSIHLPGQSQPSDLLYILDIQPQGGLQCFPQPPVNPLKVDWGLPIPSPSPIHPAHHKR
Integrin alpha-IIb/beta-3, sequence (P08514 891-1039 limits assumed): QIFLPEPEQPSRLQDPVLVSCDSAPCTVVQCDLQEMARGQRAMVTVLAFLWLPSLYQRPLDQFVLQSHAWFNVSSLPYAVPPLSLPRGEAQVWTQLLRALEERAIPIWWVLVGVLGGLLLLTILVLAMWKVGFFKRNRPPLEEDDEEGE
Data set [9] in a line: Fraction unbound in rat plasma. The data set is classed as ADME, cell-free.
For data set [10], the target named is T1, Integrin alpha-5/beta-1. The data set is described as follows: Antagonist activity at integrin alpha5beta1 in human K562 cells assessed as inhibition of cell adhesion in presence of 630 uM human serum albumin. The format is functional, cell-based.

In general, IC50 refers to the concentration that gives 50% inhibition. As usually defined, the pKa is the pH at which an ionisable group is half protonated. The low end stands for a stronger acid or weaker base, the high end for a weaker acid or stronger base. The fraction unbound is the share of the substance not bound to proteins or other matrix.

Each structure is given as a SMILES string. A value given as a limit tells only on which side of the number the result lay.

T1 sequence (P05556 21-798 limits assumed): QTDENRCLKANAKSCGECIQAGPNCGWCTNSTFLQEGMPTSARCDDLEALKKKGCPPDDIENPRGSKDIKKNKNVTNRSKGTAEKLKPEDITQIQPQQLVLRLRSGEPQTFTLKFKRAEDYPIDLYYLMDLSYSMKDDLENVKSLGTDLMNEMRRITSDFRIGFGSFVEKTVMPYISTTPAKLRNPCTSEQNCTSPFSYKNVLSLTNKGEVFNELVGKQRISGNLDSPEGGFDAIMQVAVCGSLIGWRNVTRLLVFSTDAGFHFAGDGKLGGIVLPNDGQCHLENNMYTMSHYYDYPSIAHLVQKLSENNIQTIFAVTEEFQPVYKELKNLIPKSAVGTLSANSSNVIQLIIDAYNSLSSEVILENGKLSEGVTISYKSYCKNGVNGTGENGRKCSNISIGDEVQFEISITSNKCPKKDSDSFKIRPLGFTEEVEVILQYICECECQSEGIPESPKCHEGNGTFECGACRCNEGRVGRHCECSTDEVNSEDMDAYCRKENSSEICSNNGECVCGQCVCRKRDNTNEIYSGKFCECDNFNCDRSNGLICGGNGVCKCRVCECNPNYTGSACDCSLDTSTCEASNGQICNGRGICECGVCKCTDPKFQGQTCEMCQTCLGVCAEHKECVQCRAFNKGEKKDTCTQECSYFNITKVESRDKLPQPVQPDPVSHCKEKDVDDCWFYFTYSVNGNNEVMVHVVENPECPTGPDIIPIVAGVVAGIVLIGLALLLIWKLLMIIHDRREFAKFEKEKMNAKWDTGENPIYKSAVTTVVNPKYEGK
T1 sequence (P08648 42-894 limits assumed): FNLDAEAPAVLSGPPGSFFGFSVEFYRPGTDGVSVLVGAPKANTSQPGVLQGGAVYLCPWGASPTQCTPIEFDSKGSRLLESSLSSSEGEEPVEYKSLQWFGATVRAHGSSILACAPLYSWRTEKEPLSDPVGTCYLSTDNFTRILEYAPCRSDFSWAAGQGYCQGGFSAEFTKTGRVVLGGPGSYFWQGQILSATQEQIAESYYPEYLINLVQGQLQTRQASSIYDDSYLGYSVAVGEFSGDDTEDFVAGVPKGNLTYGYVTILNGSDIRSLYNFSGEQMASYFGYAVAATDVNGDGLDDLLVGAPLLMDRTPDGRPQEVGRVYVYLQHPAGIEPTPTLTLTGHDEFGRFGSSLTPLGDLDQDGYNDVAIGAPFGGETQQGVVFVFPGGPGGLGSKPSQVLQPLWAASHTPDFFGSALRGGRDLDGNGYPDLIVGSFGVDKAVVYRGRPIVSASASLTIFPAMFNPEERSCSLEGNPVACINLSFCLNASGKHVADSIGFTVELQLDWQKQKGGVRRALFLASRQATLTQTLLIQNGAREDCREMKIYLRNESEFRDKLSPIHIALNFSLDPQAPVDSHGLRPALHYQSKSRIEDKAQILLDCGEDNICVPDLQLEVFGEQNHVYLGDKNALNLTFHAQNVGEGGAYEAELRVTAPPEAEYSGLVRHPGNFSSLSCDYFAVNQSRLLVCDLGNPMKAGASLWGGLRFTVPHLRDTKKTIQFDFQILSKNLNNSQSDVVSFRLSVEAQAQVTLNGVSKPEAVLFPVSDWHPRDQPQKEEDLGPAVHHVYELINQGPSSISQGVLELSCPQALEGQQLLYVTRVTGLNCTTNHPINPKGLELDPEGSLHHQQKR
T1 sequence (P08648 895-1049 limits assumed): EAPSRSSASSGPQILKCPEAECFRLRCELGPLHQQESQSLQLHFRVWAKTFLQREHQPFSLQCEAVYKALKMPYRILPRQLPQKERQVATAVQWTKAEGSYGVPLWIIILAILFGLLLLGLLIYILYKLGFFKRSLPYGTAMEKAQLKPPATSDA
Integrin alpha-V/beta-3, sequence (P05106 27-788 limits assumed): as the sequence (P05106 27-788 limits assumed) above
Integrin alpha-V/beta-3, sequence (P06756 31-889 limits assumed): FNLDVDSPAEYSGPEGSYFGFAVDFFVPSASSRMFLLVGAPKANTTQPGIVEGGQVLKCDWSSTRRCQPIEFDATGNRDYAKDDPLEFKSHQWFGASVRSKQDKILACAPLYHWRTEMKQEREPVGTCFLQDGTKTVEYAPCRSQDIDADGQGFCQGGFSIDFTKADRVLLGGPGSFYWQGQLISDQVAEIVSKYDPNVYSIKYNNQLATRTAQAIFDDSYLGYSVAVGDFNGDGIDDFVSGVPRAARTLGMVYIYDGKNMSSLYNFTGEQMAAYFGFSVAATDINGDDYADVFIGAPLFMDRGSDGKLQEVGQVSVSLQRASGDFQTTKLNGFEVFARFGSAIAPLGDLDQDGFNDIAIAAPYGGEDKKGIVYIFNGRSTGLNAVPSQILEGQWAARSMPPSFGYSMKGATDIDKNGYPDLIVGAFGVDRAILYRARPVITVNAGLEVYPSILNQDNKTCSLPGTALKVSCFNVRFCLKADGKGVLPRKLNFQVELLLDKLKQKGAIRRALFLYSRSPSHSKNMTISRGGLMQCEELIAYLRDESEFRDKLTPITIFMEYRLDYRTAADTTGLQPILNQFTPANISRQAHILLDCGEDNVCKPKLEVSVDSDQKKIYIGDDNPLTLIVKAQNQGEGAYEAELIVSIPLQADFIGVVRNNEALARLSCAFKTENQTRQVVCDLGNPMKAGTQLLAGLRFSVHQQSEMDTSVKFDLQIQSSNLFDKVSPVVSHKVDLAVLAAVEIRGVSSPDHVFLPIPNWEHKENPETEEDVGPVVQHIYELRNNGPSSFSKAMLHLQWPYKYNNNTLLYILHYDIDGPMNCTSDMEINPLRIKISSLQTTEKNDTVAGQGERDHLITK
Integrin alpha-V/beta-3, sequence (P06756 891-1048 limits assumed): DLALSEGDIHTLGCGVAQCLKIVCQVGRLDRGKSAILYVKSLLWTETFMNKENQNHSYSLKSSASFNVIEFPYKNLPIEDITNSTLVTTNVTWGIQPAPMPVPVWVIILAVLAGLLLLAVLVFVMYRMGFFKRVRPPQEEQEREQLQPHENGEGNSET

In the case of `O=C(N[C@@H](Cc1ccc(OCCc2ccc3c(n2)NCCO3)cc1)C(=O)O)c1c(Cl)cccc1Cl`, the concentration for half-maximal inhibition (IC50) in [1] was 0.017 µM; in [2], 0.13 µM; in [5], 0.001 µM; in data set [6] it was 0.01 µM; in data set [7], 0.27 µM. Besides, in data set [3], the Ratio IC50 worked out at 2.1. Besides, the pKa in [4] came to 6.

Take `NC(=O)NCCCOc1ccc(C[C@H](NC(=O)c2c(Cl)cccc2Cl)C(=O)O)cc1`: the IC50 is 0.15 µM in data set [5] and 10 µM in data set [6].

As to `CNc1cccc(CCOc2ccc(C[C@H](NC(=O)c3c(Cl)cccc3Cl)C(=O)O)cc2)n1`, the IC50 in data set [1] is 0.007 µM. For the same compound, the Ratio IC50 in data set [3] stood at 2.4. In data set [4], this compound returned a pKa of 7.

`O=C(N[C@@H](Cc1ccc(OCCNc2nc3ccccc3[nH]2)cc1)C(=O)O)c1c(Cl)cccc1Cl`: the pKa in data set [4] turned out to be 7.2. Moreover, the IC50 turned out to be 0.008 µM in data set [5] and 0.16 µM in [6].

As to `CN1CC(CCCOc2ccc(C[C@H](NC(=O)c3c(Cl)cccc3Cl)C(=O)O)cc2)C1`, the results for the half-maximal inhibitory concentration (IC50) in data set [5] and in [6] were 0.36 µM and 58 µM, respectively.

Take `O=C(N[C@@H](Cc1ccc(CCCc2ccc3c(n2)NCCC3)cc1)C(=O)O)c1c(Cl)cccc1Cl`: the IC50 in data set [8] was greater than 10 µM; in data set [5], less than 0.001 µM; in data set [6] it was less than 0.008 µM; in data set [10] it was 0.45 µM. This compound also gave a fraction unbound in data set [9] of 0.006.

With `CNc1cccc(CCCc2ccc(C[C@H](NC(=O)c3c(Cl)cccc3Cl)C(=O)O)cc2)n1`, the pKa in [4] is 7.6.

Regarding `O=C(N[C@@H](Cc1ccc(C#CCCNc2ccccn2)cc1)C(=O)O)c1c(Cl)cccc1Cl`, the pKa in data set [4] came out at 6.7. In addition, the IC50 in data set [5] is 0.069 µM; in [6], 2.1 µM.

Regarding `O=C(N[C@@H](Cc1ccc(OCCNc2nc3ccccc3s2)cc1)C(=O)O)c1c(Cl)cccc1Cl`, the pKa in data set [4] stood at 4.3. In addition, the IC50 amounted to 0.97 µM in [5] and 2.4 µM in [6].

For the compound `CN(C)c1cccc(CCOc2ccc(C[C@H](NC(=O)c3c(Cl)cccc3Cl)C(=O)O)cc2)n1`, the concentration for half-maximal inhibition (IC50) in data set [5] stood at 0.14 µM; in data set [6] it was 2.7 µM.

As for `O=C(N[C@@H](Cc1ccc(OCCc2ccc3c(n2)NCCC3)cc1)C(=O)O)c1c(Cl)cccc1Cl`, the IC50 in [1] was 0.001 µM; in [8], greater than 10 µM; in data set [5] it was less than 0.001 µM; in data set [6], less than 0.003 µM; in data set [7], 0.009 µM; in data set [10] it was 0.029 µM. Besides, the Ratio IC50 in [3] amounted to 4.5. This compound registered a pKa in data set [4] of 7.6. Also, the unbound share (fraction unbound) in [9] was found to be 0.007.

Consider `Cc1cc(C)c(C(=O)N[C@@H](CNC(=O)CO[C@@H]2C[C@@H](CNc3ccccn3)N(C(=O)OCc3ccccc3)C2)C(=O)O)c(C)c1`, for which the IC50 in data set [1] came out at 1.2 µM; in data set [2] it was 0.2 µM; in data set [6], 0.586 µM; in data set [7] it was 3.2 µM. For the same compound, the Ratio IC50 in data set [3] stood at 15.

Compound `O=C(N[C@@H](Cc1ccc(CCCCNc2ccccn2)cc1)C(=O)O)c1c(Cl)cccc1Cl` gave a pKa in [4] of 7.2. Moreover, the IC50 in data set [5] worked out at 0.024 µM; in data set [6], 1.1 µM.

`O=C(Cc1ccc2c(n1)NCCC2)Nc1ccc(C[C@H](NC(=O)c2c(Cl)cccc2Cl)C(=O)O)cc1`: the IC50 was determined as 0.049 µM in [1]; 0.21 µM in data set [2]; 0.003 µM in [5]; 0.084 µM in data set [6]; 0.86 µM in [7]. For the same compound, the Ratio IC50 in [3] amounted to 4.

In the case of `CNc1cccc(COCc2ccc(C[C@H](NC(=O)c3c(Cl)cccc3Cl)C(=O)O)cc2)n1`, the pKa in data set [4] stood at 6.4. In addition, the results for the IC50 in [5] and in [6] were 0.22 µM and 1.4 µM, respectively.

In the case of `CN1CCNc2nc(CCOc3ccc(C[C@H](NC(=O)c4c(Cl)cccc4Cl)C(=O)O)cc3)ccc21`, the IC50 in data set [1] is 0.023 µM; in data set [2], 0.15 µM; in data set [8] it was greater than 10 µM; in data set [5] it was 0.001 µM; in data set [6], less than 0.008 µM; in [7], 0.25 µM. Further, the IC50 in data set [10] was less than 0.056 µM. The Ratio IC50 in [3] was 1.6. Moreover, the pKa in [4] turned out to be 7.1. Moreover, the fraction unbound in data set [9] came out at 0.015.

In the case of `O=C(N[C@@H](Cc1ccc(OCCCCNc2ccccn2)cc1)C(=O)O)c1c(Cl)cccc1Cl`, the 50% inhibitory concentration (IC50) came to 0.054 µM in data set [5] and 0.71 µM in data set [6].

Take `O=C(N[C@@H](Cc1ccc(OCCc2cccc(NCC3CC3)n2)cc1)C(=O)O)c1c(Cl)cccc1Cl`: the IC50 was 0.003 µM in data set [5] and less than 0.041 µM in data set [6].

`Nc1cccc(CCOc2ccc(C[C@H](NC(=O)c3c(Cl)cccc3Cl)C(=O)O)cc2)n1`: the IC50 was less than 0.001 µM in [5] and 0.009 µM in [6].

As for `O=C(N[C@@H](Cc1ccc(OCCc2cccc(NC3CCCC3)n2)cc1)C(=O)O)c1c(Cl)cccc1Cl`, the pKa in [4] amounted to 6.8. The IC50 came to 0.083 µM in [5] and 0.32 µM in data set [6].

The compound `O=C(N[C@@H](Cc1ccc(OCCNc2ccccn2)cc1)C(=O)O)c1c(Cl)cccc1Cl` yielded a pKa in [4] of 6.7.

As for `O=C(NCc1ccc2c(n1)NCCC2)c1ccc(C[C@H](NC(=O)c2c(Cl)cccc2Cl)C(=O)O)cc1`, the IC50 in [1] turned out to be 0.35 µM; in [2], 1.4 µM; in data set [5], 0.005 µM; in [6] it was 0.12 µM; in [7], 8.4 µM. The Ratio IC50 in [3] came out at 5.9. This compound showed a pKa in data set [4] of 6.8.

On to `O=C(N[C@@H](Cc1ccc(OCCCNc2ccccn2)cc1)C(=O)O)c1c(Cl)cccc1Cl`, for which, in [1], the half-inhibitory concentration (IC50) came out at 0.084 µM. Besides, the Ratio IC50 in data set [3] was 4. The same compound came in with a pKa in data set [4] of 7.1.

The values above are taken from ChEMBL document CHEMBL2029229, “Structure-activity relationship of a series of non peptidic RGD integrin antagonists targeting α5β1: part 1” (Bioorg Med Chem Lett, 2012).
